In the SangsterLogP compilation one finds logD data, which are given here for twelve compounds.

Where a SMILES comes first, the peptide text is derived from it. The star is where a group is joined. X1 = O=C(CCCCSc1ncnc2nc[nH]c12)*

The data set is described as follows: from Bachrata, M.; Bezakova, Z.; Pesák, M.; Blesova, M. (1983). Study of physicochemical properties of substances with cancerostatic effect. II. Study of lipo-hydrophilic parameters. Acta Fac. Pharm. …. The settings on record: pH 7.0.
Consider `CCOC(=O)CNC(=O)CNC(=O)CNC(=O)CCCCSc1ncnc2nc[nH]c12`, for which the log distribution coefficient (logD) came out at 0.21.

Regarding `c1ncc2[nH]cnc2n1`, the logD was -0.21.

`CCOC(=O)CNC(=O)CNC(=O)CCCCSc1ncnc2nc[nH]c12` came in with a logD of 0.5.

Take `CCOC(=O)C(NC(=O)CCCCSc1ncnc2[nH]cnc12)C(C)C` (racemic): the logD was 1.89.

With `CCCOC(=O)CNC(=O)CCCCSc1ncnc2nc[nH]c12`, the log distribution coefficient (logD) amounted to 1.37.

Consider `CCOC(=O)CNC(=O)CNC(=O)CNC(=O)CNC(=O)CCCCSc1ncnc2nc[nH]c12` (X1-GGGG-OEt), for which the pH-dependent lipophilicity (logD) was -0.23.

For the compound `CCOC(=O)[C@H](CC(C)C)NC(=O)CNC(=O)CNC(=O)CCCCSc1ncnc2nc[nH]c12`, the log distribution coefficient (logD) stood at 1.07.

As to `CCOC(=O)C[C@H](NC(=O)CCCCSc1ncnc2nc[nH]c12)C(=O)OCC`, the logD was 1.33.

The compound `CCOC(=O)C(C)NC(=O)CCCCSc1ncnc2nc[nH]c12` (configuration not stated) displayed a log distribution coefficient (logD) of 1.51.

Compound `CCOC(=O)C(NC(=O)CCCCSc1ncnc2nc[nH]c12)c1ccccc1` (configuration not stated) yielded a pH-dependent lipophilicity (logD) of 1.13.

Take `CCOC(=O)CNC(=O)CCCCSc1ncnc2nc[nH]c12`: the logD stood at 0.91.

Compound `CCCCOC(=O)CNC(=O)CCCCSc1ncnc2nc[nH]c12` displayed a pH-dependent lipophilicity (logD) of 1.39.

A word on the logD: it is the decadic logarithm of the distribution of all forms, ionised or not, between an organic phase and buffer at a given pH. Low readings indicate a more hydrophilic compound, high ones a more lipophilic compound.
